Read-outs that look alike come from different tables or passages of the source.
Legend:
[1] = test system: Stress Ulcer; assay: Stress Ulcer; assay type: in vivo, male Wistar rats; settings: oral, 1×10^-3 mole in 0.5% CMC, before restraint and water dipping at 23° C. for 7 hours
Description: After male Wistar rats weighing about 170 g was fasted for 24 hours, the rats were restrained in a stress cage and dipped in water bath at 23° C. till chest of the animals. After 7 hours, the rats were killed and the stomach was isolated. Into the isolated stomach 10% formalin (8 ml) was poured and settled. The stomach was cut open at the greater curvature, and the length of each ulcer on the membrane was measured. Sum of the length of all ulcers was shown as ulcer index (UI). The test compound was orally administered to the rats before restraint in a stress cage in the form of 0.5% CMC suspension in a concentration of 1×10^-3 mole. As a control, only the solvent (CMC solution) was administered likewise.
The inhibitory ratio (%) of stress ulcer of the test compounds was calculated by the following equation: [formula]
(§1) In the table, the inhibitory ratio (%) was evaluated as follows: […]

[2] = test system: Indomethacin-Induced Ulcer; assay: Indomethacin-Induced Ulcer; assay type: in vivo, male Wistar rats; settings: oral, 3×10^-4 mole in 0.5% CMC, 30 min before indomethacin 20 mg/kg s.c.
Description: After male Wistar rats weighing about 160 g was fasted for 24 hours, indomethacin was subcutaneously administered to the rats in a dose of 20 mg/kg in the form of a suspension in a mixture of 0.5% CMC and a small amount of Tween 80 (i.e. polyoxyethylene sorbitan monooleate). After 5 hours, the rats were killed and the stomach was isolated. Into the isolated stomach 10% formalin (8 ml) was poured and settled. The stomach was cut open at the greater curvature, and the length of each ulcer on the membrane was measured, based on which results the inhibitory ratio of the indomethacin-induced ulcer of the test compounds was calculated in the same manner as in Pharmacological Test 2. The test compound was orally administered to the rats in a concentration of 3×10^-4 mole in the form of 0.5% CMC suspension 30 minutes before the administration of indomethacin.
as §1

[3] = test system: gastric juice secretion; assay: Shay rat pylorus ligation method (gastric juice secretion-inhibiting activity); assay type: in vivo, male Wistar rats; settings: sc, 4 h, 100 mg/kg s.c., 30 min before pylorus ligation, measured 4 hours after ligation
Description: The pharmacological activities of the compouns (I) were tested by a Shay rat pylorus ligation method (cf. H. Shay et al: Gastroenterol., Vol. 5, page 43, 1945) which is the most popular method for testing of gastric juice secretion-inhibiting activity. The test was carried out by using male Wistar rats, weighing about 170 g and fasting for 24 hours.
Test compounds were administered 30 minutes before the pylorus ligation in a dose of 100 mg/kg in subcutaneous route, and the volume, total acidity and/or pepsin activity of the gastric juice were measured 4 hours after the ligation. As a control, a saline solution was administered instead of the test compound. The inhibitory ratio (%) of the test compounds were calculated when the inhibitory activities of the control were counted as zero (0).
as §1

[4] = Acute Toxicity; settings: rat, in vivo, po, male Wistar rats
Description: The test compounds were orally administered to male Wistar rats, and the half lethal dose (LD50) was measured.

[5] = test system: Acetic Acid-Induced Ulcer; assay: Acetic Acid-Induced Ulcer; assay type: in vivo, Male Wistar rats; settings: oral, twice a day for 12 days
Description: Male Wistar rats were used. Under anestherization, the abdomen of rats were opened to expose stomach, and then 30% aqueous acetic acid (0.015 ml) was injected below serous membrane which was located at boundary area of true gastric gland and pyloric glands and thereafter the abdomen was closed, by which an experimental ulcer was induced.
The test compound was orally administered in the dose as shown in Table 3 in the form of 0.5% CMC suspension or solution twice a day for 12 days after the acetic acid-induced ulcer was produced. As a control, only the solvent (CMC solution) was administered likewise.
After the reproduced mucous membrane was removed around the ulcers, the open area of ulcers was measured with a micrometer, and the sum of ulcer area was shown as ulcer index (UI). The inhibitory ratio (%) of acetic acid-induced ulcer of the test compounds was calculated in the same manner as in Pharmacological Test 2.
as §1

[6] = saline control = 0, read-out: Inhibitory ratio, Pepsin activity
[7] = saline control = 0, read-out: Inhibitory ratio, Total acidity
[8] = saline control = 0, read-out: Inhibitory ratio, Volume of gastric juice

| Molecule | Inhibitory ratio of stress ulcer [1] | Inhibitory ratio of indomethacin-induced ulcer [2] | inhibition in vivo at 100 mg/kg [3, 6] [%] | inhibition in vivo at 100 mg/kg [3, 7] [%] | inhibition in vivo at 100 mg/kg [3, 8] [%] | LD50 [4] [mg/kg] | Inhibitory ratio of acetic acid-induced ulcer ([5]; 20 mg/kg.day) | Inhibitory ratio of acetic acid-induced ulcer ([5]; 3 × 10^-5 mole/kg.day) |
| --- | --- | --- | --- | --- | --- | --- | --- | --- |
| CCN(C(=O)CCCc1nnnn1-c1ccccc1)C1CCCCC1 [Compound 46, N-Ethyl-N-cyclohexyl-4-(1-phenyl-1,2,3,4-tetrazol-5-yl)butyramide] | ++ (more than 60%) | ++ (more than 60%) | < 10 | 10 to 50 | 10 to 50 | – | – | – |
| COC1CCC(NC(=O)CCCSc2nnnn2C)CC1 (stereo not shown) [Compound 45, N-(4-Methoxycyclohexyl)-4-(1-methyl-1,2,3,4-tetrazol-5-yl)thio-butyramide] | – | ++ (more than 60%) | – | – | 10 to 50 | – | – | – |
| CN(Cc1cccs1)C(=O)CCCSc1nnnn1C [Compound 39, N-Methyl-N-(2-thienylmethyl)-4-(1-methyl-1,2,3,4-tetrazol-5-yl)thio-butyramide] | – | + (30 to less than 60%) | – | – | > 50 | – | – | – |
| CCNC(=O)CCSCc1nnnn1-c1ccccc1 [Compound 16, N-Ethyl-3-(1-phenyl-1,2,3,4-tetrazol-5-yl)-methylthio-propionamide] | + (30 to less than 60%) | – | – | – | – | > 500 | – | – |
| N,N-Dicyclohexyl-5-(1-methyl-1,2,3,4-tetrazol-5-yl)thio-butyramide [Compound 58] | – | – | – | – | – | – | + (30 to less than 60%) | – |
| COc1ccc(CCNC(=O)CCCSc2nnnn2C)cc1OC [Compound 26, N-[2-(3,4-Dimethoxyphenyl)ethyl]-4-(1-methyl-1,2,3,4-tetrazol-5-yl)thio-butyramide] | – | – | < 10 | 10 to 50 | > 50 | – | + (30 to less than 60%) | – |
| CCNC(=O)CCCSCc1nnnn1CC [Compound 17, N-Ethyl-4-(1-ethyl-1,2,3,4-tetrazol-5-yl)-methylthio-butyramide] | + (30 to less than 60%) | – | – | – | – | > 500 | – | – |
| CCn1nnnc1CSCCC(N)=O [Compound 19, 3-(1-Ethyl-1,2,3,4-tetrazol-5-yl)methylthio-propionamide] | – | – | – | – | – | > 500 | – | + (30 to less than 60%) |
| CCN(C(=O)CCCSc1nnnn1C)C1CCCCC1 [Compound 2, N-Ethyl-N-cyclohexyl-4-(1-methyl-1,2,3,4-tetrazol-5-yl)thio-butyramide] | – | – | > 50 | > 50 | > 50 | > 500 | + (30 to less than 60%) | – |
| CCN(C(=O)CCCSc1nnnn1C)C1CCCCC1O (stereo not shown) [Compound 8, N-Ethyl-N-(2-hydroxycyclohexyl)-4-(1-methyl-1,2,3,4-tetrazol-5-yl)thio-butyramide] | – | – | 10 to 50 | 10 to 50 | 10 to 50 | > 500 | – | – |
| CCCCNC(=O)CCCCc1nnnn1-c1ccccc1 [Compound 47, N-(n-Butyl)-5-(1-phenyl-1,2,3,4-tetrazol-5-yl)valeramide] | + (30 to less than 60%) | + (30 to less than 60%) | – | – | – | – | – | – |
| CCN(CC)C(=O)CCCCc1nnnn1C1CCCCC1 [Compound 5, N,N-Diethyl-5-(1-cyclohexyl-1,2,3,4-tetrazol-5-yl)valeramide] | – | – | 10 to 50 | 10 to 50 | 10 to 50 | > 500 | – | – |
| CCc1ccc(-n2nnnc2CSCCC(=O)N(CC)CC)cc1 [Compound 12, N,N-Diethyl-3-[1-(4-ethylphenyl)-1,2,3,4-tetrazol-5-yl]methylthio-propionamide] | – | – | 10 to 50 | 10 to 50 | 10 to 50 | > 500 | – | – |
| CCN(CC)C(=O)CCCSc1nnnn1C [Compound 1, N,N-Diethyl-4-(1-methyl-1,2,3,4-tetrazol-5-yl)thio-butyramide] | ++ (more than 60%) | – | > 50 | > 50 | > 50 | > 500 | – | – |
| COc1ccc(NC(=O)CCCCc2nnnn2-c2ccccc2)cc1 [Compound 49, N-(4-Methoxyphenyl)-5-(1-phenyl-1,2,3,4-tetrazol-5-yl)valeramide] | + (30 to less than 60%) | + (30 to less than 60%) | – | – | – | – | – | – |
| CCCCN(C(=O)CCCSc1nnnn1C)C1CCCCC1 [Compound 55, N-Cyclohexyl-N-butyl-5-(1-methyl-1,2,3,4-tetrazol-5-yl)thio-butyramide] | – | – | – | – | – | – | + (30 to less than 60%) | – |
| N-Ethyl-N-cyclooctyl-5-(1-methyl-1,2,3,4-tetrazol-5-yl)thio-butyramide [Compound 56] | – | – | – | – | – | – | + (30 to less than 60%) | – |
| Cn1nnnc1SCCCC(=O)NC1CCCCC1 [Compound 6, N-Cyclohexyl-4-(1-methyl-1,2,3,4-tetrazol-5-yl)thio-butyramide] | – | – | 10 to 50 | 10 to 50 | 10 to 50 | > 500 | – | – |
| CN(C)C(=O)CCCSc1nnnn1C [Compound 28, N,N-Dimethyl-4-(1-methyl-1,2,3,4-tetrazol-5-yl)thio-butyramide] | – | – | 10 to 50 | > 50 | > 50 | – | + (30 to less than 60%) | – |
| CCN(C(=O)CCCSc1nnnn1C)c1ccccc1 [Compound 9, N-Ethyl-N-phenyl-4-(1-methyl-1,2,3,4-tetrazol-5-yl)thio-butyramide] | – | – | – | – | – | > 500 | + (30 to less than 60%) | – |
| COC(=O)CCCSc1nnnn1C [Compound 37, Methyl 4-(1-methyl-1,2,3,4-tetrazol-5-yl)-thio-butyrate] | – | – | – | – | 10 to 50 | – | + (30 to less than 60%) | – |
| CN(C)c1ccc(NC(=O)CCCSc2nnnn2C)cc1 [Compound 7, N-[4-(N,N-dimethylamino)phenyl]-4-(1-methyl-1,2,3,4-tetrazol-5-yl)thio-butyramide] | ++ (more than 60%) | – | 10 to 50 | 10 to 50 | > 50 | > 500 | – | – |
| CCN(C(=O)CCCCc1nnnn1-c1ccccc1)C1CCCCC1 [Compound 4, N-Ethyl-N-cyclohexyl-5-(1-phenyl-1,2,3,4-tetrazol-5-yl)valeramide] | ++ (more than 60%) | – | 10 to 50 | 10 to 50 | 10 to 50 | > 500 | – | – |
